Earlier results, collected in US20070060557A1, “Superoxide dismutase mimics for the treatment of optic nerve and retinal damage” (priority 2003, published 2007).

Legend:
[1] = system: light-induced retinal damage in albino rats; settings: albino rats (Wang et al. 1995)
[2] = system: rat ocular ischemia-reperfusion model; settings: intravitreal injections (Rios et al. 1999)

| SMILES | light-induced retinal damage [1] | functional protection [2] [%] |
| --- | --- | --- |
| CC1(C)CC(O)CC(C)(C)N1[O] [4-hydroxy-2,2,6,6-tetramethylpiperidine-1-oxyl] | inhibited light-induced retinal damage | – |
| CNC(=S)NC [dimethylthiourea] | – | 40 |
